One experiment deals with OVCAR3-CP cells. The experiment can be described thus: 10-day colony formation assay, OVCAR3-CP (cisplatin resistant). The format is cell-based, human. The following applies: for fold change: cisplatin-resistant OVCAR3 relative to OVCAR3 cisplatin-naïve, colony formation. As for the experimental part:
Cells were seeded at predetermined densities, 24 hours later treated with drug, which was replenished every 3-4 days. After 10 days, cells were washed with PBS, fixed in methanol, stained with crystal violet and colonies counted. The surviving fraction (SF) for a given dose was calculated and dose-response curves plotted and IC50 generated using Graph Pad Prism™ 5. Receiver operator curves (ROC) were plotted by dicotomising the IC50 values based on the median of the IC50 and defining the higher IC50 values as resistant and the lower IC50 values as sensitive. The gene signatures associated with the cell lines were plotted based on sensitive and resistant cells. Additionally ROCs were plotted by dicotomising the signature scores based on the median of the scores and defining the higher signature score as signature positive and the lower signature scores as signature negative. The IC50s associated with the cell lines were plotted based on signature positive and signature negative cells. OVCAR3 and OVCAR4 cells were trypsinised and relevant cell numbers were seeded into P90 plates. Cells were allowed to adhere overnight. The following day media was removed and replaced with media containing 25 nM cisplatin. The concentration of cisplatin was increased every 2 weeks, doubling the concentration at every increment. Batches of cells were frozen every two weeks upon increasing the concentration of cisplatin. Once cells were stably growing at 200 nM cisplatin, sensitivity to cisplatin was tested by clonogenic assay. Cells were continuously grown in 200 nM cisplatin.

Experiment [1] concerns OVCAR3 and OVCAR4 cisplatin-resistant cells. The experiment can be described thus: Western blot of VEGFa protein expression. The format is cell-based, human. The following applies: IC50 concentration; western blot (FIG. 43B). (In general: In western blotting, separated proteins are transferred to a membrane and probed.)
Experiment [2] relates to relapsed platinum sensitive epithelial ovarian cancer. The following applies: cited from earlier work.
The subject of the next experiment is OVCAR3-WT cells. The experiment can be described thus: 10-day colony formation assay, OVCAR3-WT (cisplatin sensitive/naive). The format is cell-based, human. As for the experimental part:
(§1) Cells were seeded at predetermined densities, 24 hours later treated with drug, which was replenished every 3-4 days. After 10 days, cells were washed with PBS, fixed in methanol, stained with crystal violet and colonies counted. The surviving fraction (SF) for a given dose was calculated and dose-response curves plotted and IC50 generated using Graph Pad Prism™ 5. Receiver operator curves (ROC) were plotted by dicotomising the IC50 values based on the median of the IC50 and defining the higher IC50 values as resistant and the lower IC50 values as sensitive. The gene signatures associated with the cell lines were plotted based on sensitive and resistant cells. Additionally ROCs were plotted by dicotomising the signature scores based on the median of the scores and defining the higher signature score as signature positive and the lower signature scores as signature negative. The IC50s associated with the cell lines were plotted based on signature positive and signature negative cells.

The test system of experiment [3] is OVCAR3 and OVCAR4 cisplatin-resistant cells. The experiment can be described thus: CellTiter Glo cell viability assay. The following applies: Homo sapiens; 48 hour time point; cell line not stated in legend (FIG. 43A). The format is cell-based. The procedure:
Cells were trysanised and counted using the Countess™ Automated Cell Counter. 5,000 cells were seeded into each well of a 96 well plate. Cells were allowed to adhere overnight and were then treated with titrated concentrations of cisplatin, cedirianib and nintedanib (10 μM to 0.005 μM concentration). […] The 96 well plate was allowed to stand at room temperature for 20-30 mins. In the meantime the CellTiter-Glo Luminescent was allowed to thaw from the −20 freezer. Following the 20-30 minute incubation, 75 μl of the CellTiter-Glo Luminescent was added per well, this was then shaken for 2 minutes and then allowed to stand for 10 minutes. The analysis was performed using the Bioscience BioTek plate reader.

Experiment [4] deals with OVCAR3 platinum resistant cell line. The experiment can be described thus: xCELLigence migration assay. The format is cell-based, human. The conditions noted are these: 0.1 nM, 1 nM and 10 nM (p=0.08544, p=0.015522, p=0.036739) (FIG. 30d). The procedure:
The migration assay was performed using the xCELLigence RTCA DP system and carried out with CIM-plate 16 (ACEA Bioscience). Endothelial progenitor cell conditioned media, fresh endothelial media with growth factors (VEGF, IGF-1, bFGF, EGF) with 10% foetal bovine serum (FBS) and endothelial media with 10% foetal bovine serum (FBS) only, were the three chemo-attractant conditions used in the bottom chamber. 160 μl of the chemo-attractant was added to each bottom chamber of a CIM-plate 16. The CIM-Plate 16 is assembled by placing the top chamber onto the bottom chamber and snapping the two together. 30 μl pf serum-free medium is placed in the top chamber to hydrate and pre-incubate the membrane for 2 hours in the CO2 incubator at 37° C. before obtaining a background measurement. The protocol is optimised for the two paired cancer cell lines: OVCAR3, OVCAR4 parental and OVCAR3, OVCAR4 platinum resistant cell lines. […] Once the CIM-Plate 16 has been equilibrated, it is placed in the RTCA DP station and the background cell-index values are measured. […] The CIM-Plate 16 is placed in the RTCA DP station and migration is monitored every 5 minutes for several hours. […] For quantification of the migration rate, the slope of the curve was used to determine the rate if change in cell index. The average and standard deviation slope values were then quantified relative to the controls.

The test system is the same in experiment [5]. In words: xCELLigence invasion assay. The conditions noted are these: 0.1 nM, 1 nM and 10 nM (p=0.0211, p=0.0026, p=0.3373) (FIG. 30d). The format is cell-based, human. The procedure: The invasion assay was performed using the xCELLigence RTCA DP system and carried out with CIM-plate 16 (ACEA bioscience).
Normal cell media growth conditions (RPMI 1640, 1% L-Glut and 20% FCS) was the chemoattractant condition used in the bottom chamber. 160 μl of the chemoattractant was added to each bottom chamber of a CIM-plate 16. The CIM-Plate 16 is assembled by placing the top chamber onto the bottom chamber and snapping the two together. 20 μl Matrigel growth factor reduced (GFR) (phenol-red free) basement membrane matrix (Cornig, ref: 356231) was diluted in 400 μl optimem (serum free) giving a final working concentration of GFR Matrigel of 5%. […]
The protocol is optimized for the two paired cancer cell lines: OVCAR3, OVCAR4 parental and OVCAR3, OVCAR4 platinum resistant cell lines. […] Once the CIM-Plate 16 has been equilibrated, it is placed in the RTCA DP station and the background cell-index values are measured. […] The CIM-Plate 16 is placed in the RTCA DP station and migration is monitored every 5 minutes for several hours.
Each experimental condition was performed in triplicate. For quantification of the migration rate, the slope of the curve was used to determine the rate if change in cell index. The average and standard deviation slope values were then quantified relative to that at the control condition.

In another experiment the test system is Kuramochi cells. In words: Western blot of EMT and MAPK pathway markers, Kuramochi cells. The format is cell-based. The following applies: western blot (FIG. 30a).
The test system of experiment [6] is OVCAR3-WT, OVCAR3-CP, OVCAR4-WT and OVCAR4-CP cells. In words: 10-day colony formation assay with ALM201 (FIG. 30c). The format is cell-based, human. The following applies: OVCAR3 and OVCAR4 cells (FIG. 30c). As for the experimental part: as §1
OVCAR3 and OVCAR4 cells were trypsinised and relevant cell numbers were seeded into P90 plates. Cells were allowed to adhere overnight. The following day media was removed and replaced with media containing 25 nM cisplatin. The concentration of cisplatin was increased every 2 weeks, doubling the concentration at every increment. […]

Experiment [7] deals with OVCAR3 cisplatin resistant cell line. In words: Western blot of EMT and MAPK pathway markers, OVCAR3 cisplatin resistant cells. The conditions noted are these: 1 nM and 10 nM, 24 hour treatment; western blot (FIG. 30b). The format is cell-based, human.
Setting [8] is: Homo sapiens, OVCAR-3, 240 h, OVCAR3 cisplatin-resistant, 10-day colony formation (FIG. 42).
The mark [9] stands for this setting: Homo sapiens, OVCAR-3, 240 h, OVCAR3 cisplatin-naïve, 10-day colony formation (FIG. 42).

Data on four compounds can be found in US20190127805A1, “GENE SIGNATURES FOR CANCER DETECTION AND TREATMENT” (ALMAC DIAGNOSTICS LIMITED, priority 2016, published 2019).

The IC50 is the concentration that gives 50% inhibition. Read a low IC50 as higher potency.

Bounds are passed on as bounds.

For the compound `COc1cc2c(Oc3ccc4[nH]c(C)cc4c3F)ncnc2cc1OCCCN1CCCC1` [Cediranib], the concentration for half-maximal inhibition (IC50) in the experiment on OVCAR3-CP cells (setting [8]) was determined as 1190 nM; in the experiment on OVCAR3-WT cells (setting [9]) it was 4990 nM; in experiment [3], 5570 nM. Besides, in the experiment with OVCAR3-CP cells, the fold change turned out to be 0.2391. In [1], the “expression of the VEGFR ligand, VEGFa” value is “downregulated”. Besides, the PFS in experiment [2] (cediranib with platinum chemotherapy and maintenance (reference 9.4 months)) was 11.4 months. The overall survival in experiment [2] (cediranib with platinum chemotherapy and maintenance (reference 17.6 months)) was 20.3 months. The “HR for PFS” value in experiment [2] (p-value=0.0022) is 0.68. For the same compound, in experiment [2] (p-value=0.0419), the “HR for overall survival” value is given as 0.70.

`COC(=O)c1ccc2c(c1)NC(=O)/C2=C(\Nc1ccc(N(C)C(=O)CN2CCN(C)CC2)cc1)c1ccccc1` [Nintedanib]: the IC50 in the experiment with OVCAR3-CP cells (setting [8]) is 3780 nM; in the experiment with OVCAR3-WT cells (setting [9]), over 10000 nM; in experiment [3] it was 9100 nM. For the same compound, the fold change in the experiment with OVCAR3-CP cells is on record as 0.377. In [1], the “expression of the VEGFR ligand, VEGFa” value was “downregulated”.

As for `N.N.[Cl][Pt][Cl]` [cisplatin], the IC50 stood at 60 nM in the experiment with OVCAR3-CP cells (OVCAR3-CP, cisplatin with addition of Trametinib); 290 nM in the experiment with OVCAR3-CP cells (cisplatin resistant OVCAR3 cells, colony formation (FIG. 2a)); 66 nM in the experiment on OVCAR3-WT cells (OVCAR3-WT, cisplatin alone); 33 nM in the experiment on OVCAR3-WT cells (OVCAR3-WT, cisplatin with addition of 0.5 uM Trametinib); 66 nM in the experiment with OVCAR3-WT cells (cisplatin sensitive OVCAR3 cells, colony formation (FIG. 2a)). Besides, the “fold decrease in the IC50” value with OVCAR3-CP cells (OVCAR3-CP, following addition of Trametinib to cisplatin) came to 4.8 fold; with OVCAR3-WT cells (OVCAR3-WT, following addition of Trametinib to cisplatin), 2 fold. In addition, in the experiment on OVCAR3-CP cells (cisplatin resistant vs cisplatin sensitive OVCAR3 cells), the “fold difference in IC50 doses” value is recorded as 4.4 fold.

With “IRQQPRDPPTETLELEVSPDPAS (listed as Homo sapiens) [ALM201]”, the migration potential result in experiment [4] is given as “inhibited”. Further, in experiment [5], the invasion potential result is given as “inhibited”. Moreover, in the experiment with Kuramochi cells, the EMT signalling entry is recorded as “reduced” and the MAPK signalling result is on record as “reduced”. Further, the proliferation capacity result in experiment [6] is given as “inhibited the proliferation capacity”. Further, in experiment [7], the EMT markers entry was “reversing EMT markers” and the MAPK pathway entry is “downregulation of the MAPK pathway”.
